In PubChem BioAssay (NCI):
Values joined by “and” are separate entries in the source; they are usually repeats but may differ in a detail not shown here. Equal entries are not always repeated.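 In this assay, cells in 96-well plates receive the compound at five concentrations for 48 hours. Endpoints are linearly interpolated between the surrounding concentrations. Abbreviation: GI50, concentration required for 50% inhibition of growth. Definition used: TGI = concentration required for complete inhibition of growth.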

What was measured:
Test in all cases: DTP human tumour cell line panel, 48 h
TK-10 renal = system: TK-10 renal
MALME-3M melanoma = system: MALME-3M melanoma
CCRF-CEM leukemia = system: CCRF-CEM leukemia
NCI/ADR-RES ovarian = system: NCI/ADR-RES ovarian

| Structure (SMILES) | TGI (TK-10 renal) | TGI (MALME-3M melanoma) | TGI (CCRF-CEM leukemia) | TGI (NCI/ADR-RES ovarian) | GI50 (TK-10 renal) | GI50 (MALME-3M melanoma) | GI50 (NCI/ADR-RES ovarian) |
| --- | --- | --- | --- | --- | --- | --- | --- |
| O=[N+]([O-])/C(C(Cl)=C(Cl)Cl)=C(/Sc1ccccc1)N1CCOCC1 | 18.3 µM | 18.2 µM | 4.66 µM | 38.4 µM |  |  |  |
| O=C(/C=C/c1ccc(Cl)c(Cl)c1)CCN1CCN(CCC(=O)/C=C/c2ccc(Cl)c(Cl)c2)CC1 | 36.6 µM |  | > 100 µM | > 100 µM |  |  |  |
| CNC(=O)CNC(=O)CCC(=O)N(C)C | > 100 µM | > 100 µM | > 100 µM | > 100 µM |  |  |  |
| O=C(CN=C(CN(c1ccccc1)c1ccccc1)Oc1c([N+](=O)[O-])cc([N+](=O)[O-])cc1[N+](=O)[O-])N1CCNCC1 | > 100 µM | > 100 µM | > 100 µM |  |  |  |  |
| COc1ccccc1/C=C1/Sc2scc(CC(=O)Nc3ccccc3)[n+]2C1=O | 74.3 µM |  | 51.7 µM | 59.9 µM |  |  |  |
| CCCCN(CCCC)c1ccc(N=Nc2ccc(S(=O)(=O)O)cc2)cc1 | > 100 µM |  | 38.4 µM | 70.9 µM |  |  |  |
| O=C(/C(Cl)=C/c1ccccc1)c1ccccc1 | 11.7 µM | 4.39 µM | 11.5 µM | 19.4 µM |  |  |  |
| Cc1cc2nc3c(C(O)CO)nn(-c4ccccc4)c3nc2cc1C (stereo unspecified) | 35.4 µM |  |  | 44.7 µM |  |  |  |
| C[C@@H]1CCN(C(=O)CC#N)C[C@@H]1N(C)c1ncnc2[nH]ccc12 | > 100 µM | > 100 µM |  | > 100 µM | 38.1 µM | 82.5 µM | > 100 µM |
| CC1C=C(NCC2(CO)CCC2)NC(N)=N1 (stereo unspecified) |  | > 100 µM | > 100 µM | > 100 µM |  |  |  |
| CC(C)(N=NC(C)(C)C1=NCCN1)C1=NCCN1 | > 100 µM | > 100 µM | > 100 µM | > 100 µM |  |  |  |
| Cc1ccc(NNc2cc(=O)[nH]c(=O)[nH]2)cc1Cl | 33.1 µM | 31.9 µM | 62.4 µM | > 100 µM |  |  |  |
| C/C=C/OC1C(C2COC(C)(C)O2)OC2OC(C)(C)OC21 (stereo unspecified) | > 100 µM | > 100 µM | > 100 µM | > 100 µM |  |  |  |
| Cc1ccc(-c2c(C#N)c(S)n(NS(=O)(=O)c3ccccc3)c(=O)c2C#N)cc1 | 65.7 µM | > 100 µM | > 100 µM | 39.8 µM |  |  |  |
| COc1ccc(/C=N/n2c(C)n[nH]c2=O)cc1 |  | > 100 µM | > 100 µM | > 100 µM |  |  |  |
| COC(=O)CC1(O)C(C=C(C)C)C(C(=O)OC)C(=O)C(C(=O)OC)C1C(=O)OC (stereo unspecified) | > 100 µM | > 100 µM | > 100 µM | > 100 µM |  |  |  |
| O=C(c1ccco1)N1CCN(C(=O)c2ccco2)C1=S | 19.8 µM | 23 µM | 5.7 µM | > 79.7 µM |  |  |  |
| CCOC(=O)c1ccc(Nc2nc3ccc(C(F)(F)F)cc3nc2-c2ccccc2)cc1 | > 100 µM | > 100 µM | > 100 µM | > 100 µM |  |  |  |
| CC(=O)O/C(=C(/C#N)C(=O)O)C1C(C(=O)O)C(c2ccccc2[N+](=O)[O-])C=C(c2ccco2)N1c1ccncc1 (stereo unspecified) | 11.3 µM | 23 µM | > 100 µM | 36.6 µM |  |  |  |
| CCCCCC(/C=N/NC(N)=S)C(O)(C(F)(F)F)C(F)(F)F (stereo unspecified) | > 10 µM | > 10 µM | > 10 µM | > 10 µM |  |  |  |

| Structure (SMILES) | TGI (TK-10 renal) | TGI (MALME-3M melanoma) | TGI (CCRF-CEM leukemia) | TGI (NCI/ADR-RES ovarian) | GI50 (TK-10 renal) | GI50 (MALME-3M melanoma) | GI50 (NCI/ADR-RES ovarian) |
| --- | --- | --- | --- | --- | --- | --- | --- |
| COc1cc(/C=C2\CCc3cc(OC)c(OC)cc3C2=O)cc(OC)c1 | > 100 µM | > 100 µM | > 60 µM | 10.9 µM |  |  |  |
| CCO[C@H]1C[C@@H](c2ccccc2)[C@]2(C)C[C@H](C(=O)OC)ON2O1 | > 100 µM | > 100 µM | > 100 µM | > 100 µM |  |  |  |
| CCOC(=O)/C=C/[C@H](O[Si](c1ccccc1)(c1ccccc1)c1ccccc1)C(C)(C)C | > 31.6 µM | > 31.6 µM | > 31.6 µM | > 31.6 µM |  |  |  |
| O=[N+]([O-])c1cccc2nc3ccccc3c(NCCNCCO)c12 |  | 0.0216 µM and 0.0317 µM | 0.101 µM and 0.0455 µM | 2.15 µM and 14.9 µM |  |  | 0.911 µM |
| CCOC(=O)c1cc2cc(CSc3ccccc3)ccc2oc1=O | > 100 µM | > 100 µM | > 100 µM | > 100 µM |  |  |  |
| CSCCCNC(=O)c1csc([C@@H](CSC)NC(=O)CCNC(=O)[C@@H](NC(=O)OCC(Br)(Br)Br)C(C)O)n1 (stereo partly specified) | > 100 µM | > 100 µM | > 100 µM | > 100 µM |  |  |  |
| O=C(O)c1cc2c(cc1S(=O)(=O)O)C1C(C3C2C2(Cl)C(Cl)=C(Cl)C3(Cl)C2(Cl)Cl)C2(Cl)C(Cl)=C(Cl)C1(Cl)C2(Cl)Cl (stereo unspecified) | > 100 µM | > 100 µM | 37.3 µM | > 100 µM |  |  |  |
| CC(=O)NC1CCC(NC(=O)OC(C)(C)C)C(NC(=O)OC(C)(C)C)C1 (stereo unspecified) | > 100 µM | > 100 µM | > 100 µM | > 100 µM |  |  |  |
| C/C(=N/NC(=S)N(Cc1ccccn1)Cc1ccccn1)c1cnccn1 | 19.2 µM | 7.53 µM | > 100 µM |  |  |  |  |
| Cc1[nH]n(-c2nc(O)c(C)c(=O)[nH]2)c(=O)c1CCO | > 100 µM | > 100 µM | > 100 µM |  |  |  |  |
| CO/N=C1/C(n2[nH]c(=O)n(-c3ccccc3)c2=O)C2C=CC1n1c(=O)n(-c3ccccc3)c(=O)n12 (stereo unspecified) | > 100 µM | > 100 µM | > 100 µM | > 100 µM |  |  |  |
| COc1ccc(NC(C)=O)c(C(=O)CCNC(C)=O)c1 | > 100 µM |  | > 100 µM | > 100 µM |  |  |  |
| Cn1c2ccccc2n2c3ccccc3c(=S)c(C#N)c12 | > 100 µM |  | > 100 µM | > 100 µM |  |  |  |
| CC(C)(C)OC(=O)/C=C/C(=O)O/C=C/[N+](=O)[O-] | > 100 µM |  | > 100 µM |  |  |  |  |
| FC(F)(F)C1(C(F)(F)F)OC(Cl)(Cl)C(Cl)(Cl)O1 | > 10 µM | > 10 µM |  | > 10 µM |  |  |  |
| Cc1cc(S(N)(=O)=O)c(S/C(=N\Nc2ccc([N+](=O)[O-])cc2)c2ccc(Cl)cc2)cc1Cl | 3.54 µM | 4.31 µM | > 100 µM |  |  |  |  |
| Cc1ccnc2c1c(=O)c1ccccc1n2C | 89.8 µM | > 100 µM | > 100 µM | > 100 µM |  |  |  |
| O=[N+]([O-])C(=C/C1CCCCC1)/C(=C\C1CCCCC1)[N+](=O)[O-] | 16.8 µM | 6.69 µM | 17.7 µM | 7.29 µM |  |  |  |
| N#Cc1nsnc1-c1nc(-c2nsnc2C#N)nc(-c2nsnc2C#N)n1 | > 100 µM | > 100 µM |  | > 100 µM |  |  |  |
